The test has as its target T1, SARM1 SAM-TIR (Homo sapiens, UniProt Q6SZW1).
T1 construct: a fragment of the SARM1 molecule encompassing the SAM and TIR domains; tandem Strep-tag II (WSHPQFEK twice, with Gly/Ser linkers); made in house; host or cells: NRK1-HEK293T cells (transient transfection; crude lysate supernatant used, not purified)
T1 sequence (Q6SZW1 409-724 limits assumed): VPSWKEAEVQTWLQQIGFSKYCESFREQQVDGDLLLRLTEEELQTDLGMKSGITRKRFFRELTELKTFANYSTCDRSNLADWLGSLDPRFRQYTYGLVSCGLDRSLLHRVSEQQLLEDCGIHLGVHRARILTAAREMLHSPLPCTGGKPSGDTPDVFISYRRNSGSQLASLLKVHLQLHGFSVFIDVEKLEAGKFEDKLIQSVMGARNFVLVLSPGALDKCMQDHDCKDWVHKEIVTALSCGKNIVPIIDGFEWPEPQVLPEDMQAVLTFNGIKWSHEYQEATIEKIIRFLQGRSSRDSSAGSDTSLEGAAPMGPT
The experiment in a line: SAM-TIR SARM1 IC50 assay (NADase activity, NAD+ cleavage, RapidFire MS readout). Format: biochemical. The protocol:
This Example describes an assay of SAM-TIR NADase activity and use of this assay to measure the efficacy of compounds of Formula I to block SARM1 mediated NAD+ cleavage. This assay is optimized in such a way as to characterize the efficacy of the compounds in Formula I to inhibit SARM1 activity and to calculate an IC50 value for each compound. This assay makes use of a fragment of the SARM1 molecule encompassing the SAM and TIR domains.
NRK1-HEK293T cells were seeded onto 150 cm^2 plates at 20×10^6 cells per plate. The next day, the cells were transfected with 15 μg FCIV-SST (SAM-TIR expression plasmid, SEQ ID NO: 1) using X-TREMEGENE™ 9 DNA Transfection Reagent (Roche product #06365787001).
The cultures were supplemented with 1 mM NR at time of transfection to minimize toxicity from SAM-TIR overexpression. Forty-eight hours after transfection, cells were harvested, pelleted by centrifugation at 1,000 rpm (Sorvall ST 16R centrifuge, Thermo Fisher), and washed once with cold PBS (0.01 M phosphate buffered saline NaCl 0.138 M; KCl 0.0027 M; pH 7.4). The cells were resuspended in PBS with protease inhibitors (cOmplete™ protease inhibitor cocktail, Roche product #11873580001) and cell lysates were prepared by sonication (Branson Sonifer 450, output=3, 20 episodes of stroke). The lysates were centrifuged (12,000×g for 10 min at 4° C.) to remove cell debris and the supernatants (containing SARM1 SAM-TIR protein) were stored at −80° C. for later use in the in vitro SARM1 SAM-TIR NADase assay (see below). Protein concentration was determined by the Bicinchoninic (BCA) method and used to normalize lysate concentrations.
The enzymatic assay was performed in a 384-well polypropylene plate in Dulbecco's PBS buffer in a final assay volume of 20 μL. SAM-TIR lysate with a final concentration of 5 μg/mL was pre-incubated with the respective compound at 1% DMSO final assay concentration over 2 h at room temperature. The reaction was initiated by addition of 5 μM final assay concentration of NAD+ as substrate. After a 2 hr room temperature incubation, the reaction was terminated with 40 μL of stop solution of 7.5% trichloroactetic acid in acetonitrile. The NAD+ and ADPR concentrations were analyzed by a RapidFire High Throughput Mass Spectrometry System (Agilent Technologies, Santa Clara, CA) using an API4000 triple quadrupole mass spectrometer (AB Sciex Framingham, Mass.).

Setting [1] is: SAM-TIR lysate 5 μg/mL, 2 h pre-incubation with compound, 5 μM NAD+, 2 hr room temperature, read-out: SARM1 IC50.

Where two headings read alike, the source gives them in different places. Bounds are passed on as bounds.

Our source for the IC50 values is patent US12624025B2, “Inhibitors of SARM1” (DISARM THERAPEUTICS, INC., priority 2019, dated 2026).

As for `CN1CCC(n2sc(Nc3c(Cl)ccc4ncccc34)c(C#N)c2=O)CC1` [Example 1], the IC50 under setting [1] was less than 1000 nM.

With `CC(=O)N1CCC(n2sc(Nc3ccccc3C(F)(F)F)c(C#N)c2=O)CC1` [Example 2], the IC50 under setting [1] was less than 1000 nM. As for `C[C@@H]1CNC[C@@H]1n1sc(Nc2ccccc2C(F)(F)F)c(C#N)c1=O` [Example 3], under setting [1], the IC50 was less than 1000 nM. On the same count and under the same terms, to `N#Cc1c(Nc2ccccc2C(F)(F)F)sn(-c2ccccc2)c1=O` [Example 4] belongs less than 1000 nM; to `N#Cc1c(Nc2ccccc2C(F)(F)F)sn([C@H]2CCNC2)c1=O` [Example 5], less than 1000 nM.

Consider `N#Cc1c(Nc2ccccc2C(F)(F)F)sn(-c2cccc(C(N)=O)c2)c1=O` [Example 6], for which the IC50 under setting [1] is less than 1000 nM.

On to `CS(=O)(=O)N1CC[C@H](n2sc(Nc3ccccc3C(F)(F)F)c(C#N)c2=O)C1` [Example 7], for which, under setting [1], the IC50 was less than 1000 nM. For `N#Cc1c(Nc2ccccc2C(F)(F)F)sn(-c2cccc3[nH]ncc23)c1=O` [Example 8], under setting [1], the IC50 is less than 1000 nM.

`N#Cc1c(Nc2ccccc2C(F)(F)F)sn([C@H]2CCN(C(N)=O)C2)c1=O` [Example 9]: the half-maximal inhibitory concentration (IC50) under setting [1] is less than 1000 nM. Consider `N#Cc1c(Nc2ccccc2C(F)(F)F)sn([C@@H]2CCN(C(N)=O)C2)c1=O` [Example 10], for which the IC50 under setting [1] was less than 1000 nM. Turning to `N#Cc1c(Nc2ccccc2C(F)(F)F)sn(-c2ccc3[nH]ncc3c2)c1=O` [Example 11], under setting [1], the IC50 is less than 1000 nM. In the case of `CS(=O)(=O)N1CC[C@@H](n2sc(Nc3ccccc3C(F)(F)F)c(C#N)c2=O)C1` [Example 12], the half-inhibitory concentration (IC50) under setting [1] is less than 1000 nM. Consider `N#Cc1c(Nc2c(Cl)ccc3ncccc23)sn(-c2ccn[nH]2)c1=O` [Example 13], for which the IC50 under setting [1] was less than 1000 nM. Turning to `N#Cc1c(Nc2ccccc2C(F)(F)F)sn(C2CCN(C(N)=O)CC2)c1=O` [Example 14], under setting [1], the IC50 was less than 1000 nM. Regarding `CC(=O)N1CC[C@@H](n2sc(Nc3ccccc3C(F)(F)F)c(C#N)c2=O)C1` [Example 15], the IC50 under setting [1] is less than 1000 nM. On the same count and under the same terms, with `N#Cc1c(Nc2c(Cl)ccc3ncccc23)sn(C2CCNCC2)c1=O` [Example 16] the figure was less than 1000 nM; with `N#Cc1c(Nc2ccccc2C(F)(F)F)sn(-c2cccc(-c3cnco3)c2)c1=O` [Example 18], less than 1000 nM; with `N#Cc1c(Nc2ccccc2C(F)(F)F)sn(C2CCNCC2)c1=O` [Example 19], less than 1000 nM. Still for that read-out and setting: with `CS(=O)(=O)N1CCC(n2sc(Nc3ccccc3C(F)(F)F)c(C#N)c2=O)CC1` [Example 20] the figure was less than 1000 nM; with `N#Cc1c(Nc2ccccc2C(F)(F)F)sn([C@@H]2CCNC2)c1=O` [Example 21], less than 1000 nM; with `CS(=O)(=O)N1CC[C@H](n2sc(Nc3c(Cl)ccc4ncccc34)c(C#N)c2=O)C1` [Example 22], less than 1000 nM. For `CC(=O)N1CC[C@H](n2sc(Nc3ccccc3C(F)(F)F)c(C#N)c2=O)C1` [Example 23], under setting [1], the IC50 is less than 1000 nM.

On to `N#Cc1c(Nc2ccccc2C(F)(F)F)sn(C2CNCC23CC3)c1=O` (centres unmarked) [Example 24], for which the IC50 under setting [1] is less than 1000 nM. The same measure, in the same setting: with `N#Cc1c(Nc2cccc3ncccc23)sn(-c2ccc3c(c2)OCCO3)c1=O` [Example 25] the figure was less than 1000 nM. `CS(=O)(=O)N1C2CCC1C(n1sc(Nc3c(Cl)ccc4ncccc34)c(C#N)c1=O)C2` (centres unmarked) [Example 26] gave an IC50 of less than 1000 nM. Take `N#Cc1c(Nc2ccccc2C(F)(F)F)sn([C@@H]2CNCC23CC3)c1=O` [Example 27]: the IC50 under setting [1] was less than 1000 nM. As to `C[C@@H]1CN(S(C)(=O)=O)C[C@H]1n1sc(Nc2c(Cl)ccc3ncccc23)c(C#N)c1=O` [Example 28], the IC50 under setting [1] is less than 1000 nM. Consider `CC(C)(C)OC(=O)n1ncc2cc(-n3sc(Nc4ccccc4C(F)(F)F)c(C#N)c3=O)ccc21` [Example 29], for which, under setting [1], the IC50 was less than 1000 nM. Same read-out and setting: to `CS(=O)(=O)N1CC[C@@H](n2sc(Nc3c(Cl)ccc4ncccc34)c(C#N)c2=O)C1` [Example 30] belongs less than 1000 nM; to `N#Cc1c(Nc2ccccc2C(F)(F)F)sn(C2CCOCC2)c1=O` [Example 31], less than 1000 nM. The same measure, in the same setting: to `N#Cc1c(Nc2c(Cl)ccc3ncccc23)sn([C@@H]2CCNC2)c1=O` [Example 32] belongs less than 1000 nM. As to `CN1CC[C@@H](n2sc(Nc3c(Cl)ccc4ncccc34)c(C#N)c2=O)C1` [Example 33], the IC50 under setting [1] was less than 1000 nM.

Regarding `CS(=O)(=O)N1CC2CCC(C1)C2n1sc(Nc2c(Cl)ccc3ncccc23)c(C#N)c1=O` (centres unmarked) [Example 34], under setting [1], the IC50 was less than 1000 nM. Take `COCCN(C)C(=O)c1c(Nc2ccccc2C(F)(F)F)sn(-c2ccccc2)c1=O` [Example 35]: the IC50 under setting [1] was less than 1000 nM.

Consider `CN1C[C@H](n2sc(Nc3c(Cl)ccc4ncccc34)c(C#N)c2=O)C2(CC2)C1` [Example 36], for which the IC50 under setting [1] is less than 1000 nM.

On to `N#Cc1c(Nc2c(Cl)ccc3ncccc23)sn(C2C3CCC2CNC3)c1=O` (centres unmarked) [Example 37], for which the half-maximal inhibitory concentration (IC50) under setting [1] was less than 1000 nM. Turning to `O=C(c1c(Nc2c(Cl)cccc2Cl)sn(-c2ccccc2)c1=O)N1CCOCC1` [Example 38], under setting [1], the IC50 was less than 1000 nM. As to `O=C(c1c(Nc2ccccc2C(F)(F)F)sn(-c2ccccc2)c1=O)N1CCOCC1` [Example 39], the IC50 under setting [1] is less than 1000 nM.

Turning to `CN1C[C@@H](n2sc(Nc3c(Cl)ccc4ncccc34)c(C#N)c2=O)C2(CC2)C1` [Example 41], the concentration for half-maximal inhibition (IC50) under setting [1] is less than 1000 nM. Take `CS(=O)(=O)N1CC2CCC1C2n1sc(Nc2c(Cl)ccc3ncccc23)c(C#N)c1=O` (centres unmarked) [Example 42]: under setting [1], the IC50 was less than 1000 nM.

For the compound `C[C@H]1CNCC[C@H]1n1sc(Nc2c(Cl)ccc3ncccc23)c(C#N)c1=O` [Example 43], the IC50 under setting [1] is less than 1000 nM. Same read-out and setting: with `C[C@@H]1CNC[C@H]1n1sc(Nc2c(Cl)ccc3ncccc23)c(C#N)c1=O` [Example 44] the figure was less than 1000 nM. With `COc1cccc(OC)c1Nc1sn([C@@H]2CCNC2)c(=O)c1C(=O)N1CCOCC1` [Example 46], the IC50 under setting [1] was less than 1000 nM. Same read-out and setting: to `Cc1cnn(C)c1-n1sc(Nc2c(Cl)ccc3ncccc23)c(C#N)c1=O` [Example 47] belongs 1000 to 5000 nM; to `N#Cc1c(Nc2c(Cl)ccc3ncccc23)sn([C@H]2CCNC2)c1=O` [Example 48], more than 5000 nM.

For `CN(c1ccccc1C(F)(F)F)c1sn([C@@H]2CNCC23CC3)c(=O)c1C#N` [Example 49], the half-maximal inhibitory concentration (IC50) under setting [1] was more than 5000 nM. Turning to `N#Cc1c(Nc2c(Cl)cccc2Cl)sn(-c2ccc(-n3cccn3)cc2)c1=O` [Example 50], under setting [1], the IC50 was less than 1000 nM.

Turning to `N#Cc1c(Nc2ccccc2C(F)(F)F)sn(-c2ccc(-n3cccn3)cc2)c1=O` [Example 51], the IC50 under setting [1] is less than 1000 nM. Take `N#Cc1c(Nc2ccccc2C(F)(F)F)sn(-c2ccc3c(c2)OCCO3)c1=O` [Example 52]: under setting [1], the half-inhibitory concentration (IC50) is less than 1000 nM. On the same count and under the same terms, with `N#Cc1c(Nc2ccccc2C(F)(F)F)sn(-c2ccc3cn[nH]c3c2)c1=O` [Example 53] the figure was less than 1000 nM.

Usually IC50 stands for the midpoint of a concentration-inhibition curve.
